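A five-concentration, 48-hour dose response in 96-well plates underlies each endpoint, interpolated linearly between surrounding concentrations. GI50 is the concentration that inhibits growth by half.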 Active and inactive are the calls of the source. Rule as the data show it: active = GI50 up to about 1.1 µM and inactive = higher.

Test systems include Malme-3M; CAKI-1; ACHN; TK-10; K562; PC-3; MOLT-4; HOP-62; SK-OV-3; RXF 393; LOX IMVI; UACC-257; T47D; KM12; UO-31; OVCAR-5; NCI-H522; OVCAR-8; HCT-116; HOP-92.
Common to all, as to assay: NCI-60 cell line screen, 48 h

Consider `O=C1/C(=C\c2cccc(Oc3ccccc3)c2)SC(c2ccccc2)N1c1ccc(Cl)cc1` (stereo not given), for which the GI50 with Malme-3M was 45.6 µM (inactive); in the assay with CAKI-1, > 60.3 µM (inactive); in the assay on ACHN, 20.2 µM (inactive); with TK-10, > 64.9 µM (inactive); in the assay on K562, 2.64 µM (inactive); in the assay with PC-3, 63.2 µM (inactive). Also, the GI50 with MOLT-4 was 20.4 µM (inactive); in the assay on HOP-62 it was > 57.1 µM (inactive); in the assay on SK-OV-3, 14.1 µM (inactive); in the assay with RXF 393, 19.5 µM (inactive); in the assay with LOX IMVI, 15.8 µM (inactive); in the assay with UACC-257, 41.9 µM (inactive). Further, the GI50 in the assay on T47D was 5.37 µM (inactive); with KM12, 12.6 µM (inactive); in the assay with UO-31, 16 µM (inactive); with OVCAR-5, > 39.7 µM (inactive); in the assay on NCI-H522, 10.2 µM (inactive); in the assay on OVCAR-8, 32.9 µM (inactive). In addition, the GI50 in the assay on HCT-116 is 10.3 µM (inactive); in the assay on HOP-92, 61.1 µM (inactive).
In the case of `Cc1ccc(S(=O)(=O)NC2=NS(=O)(=O)c3cc(C)c(Cl)cc3S2)cc1`, the GI50 in the assay on Malme-3M is 38.8 µM (inactive); with CAKI-1, > 100 µM (inactive); with ACHN it was > 100 µM (inactive); with TK-10, > 100 µM (inactive); in the assay with K562 it was 34.3 µM (inactive); in the assay on PC-3 it was 45.5 µM (inactive). Further, the GI50 in the assay on MOLT-4 was 39.1 µM (inactive); in the assay on HOP-62, > 100 µM (inactive); with SK-OV-3 it was > 100 µM (inactive); in the assay with RXF 393 it was 76.7 µM (inactive); in the assay with LOX IMVI, 62.2 µM (inactive); with UACC-257 it was > 100 µM (inactive). Moreover, the GI50 is 70.1 µM (inactive) in the assay on T47D; > 100 µM (inactive) with KM12; > 100 µM (inactive) in the assay with UO-31; > 100 µM (inactive) in the assay with OVCAR-5; 42.3 µM (inactive) with NCI-H522; > 100 µM (inactive) with OVCAR-8. For the same compound, the GI50 in the assay on HCT-116 was 88.3 µM (inactive); in the assay with HOP-92, 24.4 µM (inactive).
With `CC1(C)N=C(N)N=C(N)N1c1ccc(CCCCc2ccc(Cl)cc2Cl)cc1`, the GI50 is 0.486 µM (active) in the assay with Malme-3M; 2.05 µM (inactive) in the assay on CAKI-1; 4.57 µM (inactive) in the assay with ACHN; 3.13 µM (inactive) in the assay with TK-10; 42.2 µM (inactive) in the assay with K562; 0.418 µM (active) in the assay with PC-3. For the same compound, the GI50 is 0.861 µM (active) in the assay with MOLT-4; 1.08 µM (active) in the assay on HOP-62; 0.746 µM (active) with SK-OV-3; 0.891 µM (active) in the assay on RXF 393; 0.417 µM (active) in the assay with LOX IMVI; 0.659 µM (active) in the assay on UACC-257. The GI50 is 1.29 µM (inactive) in the assay with T47D; 0.63 µM (active) with KM12; 21.2 µM (inactive) with UO-31; 4.31 µM (inactive) in the assay on OVCAR-5; 0.433 µM (active) in the assay on NCI-H522; 0.598 µM (active) in the assay on OVCAR-8. Besides, the GI50 in the assay on HCT-116 is 0.247 µM (active); in the assay on HOP-92, 4.08 µM (inactive).
Regarding `Cn1nc2c(c1N)Cc1c(nn(C)c1N)-c1ccccc1-2`, the GI50 in the assay with Malme-3M, in the assay with CAKI-1, with ACHN, in the assay with TK-10, in the assay on K562 and with PC-3 was > 100 µM (inactive) in each case. The GI50 with MOLT-4, in the assay with HOP-62, in the assay with SK-OV-3, with RXF 393, in the assay on LOX IMVI and in the assay with UACC-257 was > 100 µM (inactive) each time. Besides, the GI50 in the assay on T47D, in the assay with KM12, in the assay with UO-31, in the assay on OVCAR-5, with NCI-H522 and in the assay on OVCAR-8 was > 100 µM (inactive) each time. The GI50 with HCT-116 and in the assay with HOP-92 was > 100 µM (inactive) in each case.
For the compound `Clc1ccc(-c2nn3c(CCCCCCCCc4nnc5sc(-c6ccc(Cl)cc6)nn45)nnc3s2)cc1`, the GI50 is 45.2 µM (inactive) in the assay on Malme-3M; 16.3 µM (inactive) with CAKI-1; 30.1 µM (inactive) in the assay on ACHN; 23.4 µM (inactive) in the assay with TK-10; 20 µM (inactive) with K562; 11.5 µM (inactive) in the assay with PC-3. Besides, the GI50 with MOLT-4 was 7.69 µM (inactive); with HOP-62, 26.4 µM (inactive); with SK-OV-3, 30.1 µM (inactive); in the assay with RXF 393 it was 14.9 µM (inactive); with LOX IMVI, 7.24 µM (inactive); with UACC-257 it was 12.3 µM (inactive). For the same compound, the GI50 in the assay on T47D is 4.67 µM (inactive); in the assay with KM12, 11.9 µM (inactive); in the assay with UO-31, 12.6 µM (inactive); in the assay on OVCAR-5 it was 36.3 µM (inactive); with NCI-H522, 7.91 µM (inactive); in the assay on OVCAR-8, 18.7 µM (inactive). For the same compound, the figures for the GI50 with HCT-116 and with HOP-92 were 15.9 µM (inactive) and 31 µM (inactive), respectively.
As for `CC/C(=N/O)c1ccc(Br)s1`, the GI50 in the assay with Malme-3M is > 100 µM (inactive); in the assay with CAKI-1, > 100 µM (inactive); with ACHN, 92 µM (inactive); in the assay on TK-10 it was > 100 µM (inactive); with K562, > 100 µM (inactive); in the assay on PC-3, > 100 µM (inactive). The GI50 was 44.7 µM (inactive) in the assay with MOLT-4; > 100 µM (inactive) with HOP-62; > 100 µM (inactive) with SK-OV-3; 70.3 µM (inactive) in the assay with RXF 393; 51.9 µM (inactive) with LOX IMVI; > 100 µM (inactive) in the assay on UACC-257. Also, the GI50 with T47D was 70 µM (inactive); with KM12 it was > 100 µM (inactive); in the assay with UO-31, 58.6 µM (inactive); in the assay on OVCAR-5, > 100 µM (inactive); with NCI-H522, > 100 µM (inactive); in the assay with OVCAR-8 it was > 100 µM (inactive). For the same compound, the values for the GI50 in the assay on HCT-116 and in the assay with HOP-92 were > 100 µM (inactive) and 40.3 µM (inactive), respectively.
On to `C=C1[C@@H](OC(C)=O)/C=C/C2C3C(=O)[C@@](C)(OC(C)=O)[C@H]([C@H](OC(C)=O)[C@]4(O)[C@@H](C)C(=O)O[C@H]4[C@H]1Cl)[C@@]23C` (stereo not given in full), for which the GI50 in the assay on Malme-3M, in the assay with CAKI-1, with ACHN, in the assay with TK-10, with K562 and in the assay on PC-3 was > 100 µM (inactive) in each case. For the same compound, the GI50 with MOLT-4, with HOP-62, in the assay on SK-OV-3, with RXF 393, in the assay on LOX IMVI and in the assay on UACC-257 was > 100 µM (inactive) in each case. Besides, the GI50 in the assay on T47D, in the assay on KM12, in the assay with UO-31, in the assay on OVCAR-5, in the assay with NCI-H522 and in the assay on OVCAR-8 was > 100 µM (inactive) in each case. In addition, the GI50 with HCT-116 and with HOP-92 was > 100 µM (inactive) throughout.
Regarding `O=C(NCCN1CCCC1)c1cn2c(ccc3sc4ccccc4c(=O)c32)n1`, the GI50 was 16 µM (inactive) with Malme-3M; 11.4 µM (inactive) in the assay with CAKI-1; 5.13 µM (inactive) with ACHN; 12.5 µM (inactive) with TK-10; 1.5 µM (inactive) in the assay on K562; 13.8 µM (inactive) in the assay with PC-3. The GI50 was 0.422 µM (active) in the assay with MOLT-4; 11.7 µM (inactive) with HOP-62; 16.3 µM (inactive) with SK-OV-3; 10.8 µM (inactive) in the assay with RXF 393; 1.46 µM (inactive) with LOX IMVI; 17.7 µM (inactive) with UACC-257. The GI50 was 19.6 µM (inactive) in the assay on T47D; 16.7 µM (inactive) with KM12; 13.3 µM (inactive) in the assay with UO-31; 11.9 µM (inactive) with OVCAR-5; 10.7 µM (inactive) in the assay with NCI-H522; 4.95 µM (inactive) in the assay with OVCAR-8. Moreover, the GI50 was 4.02 µM (inactive) in the assay on HCT-116 and 15.2 µM (inactive) with HOP-92.
Turning to `Nc1sc2c(c1C(=O)c1ccc(Cl)c(Cl)c1)CCCC2`, the GI50 was 59.4 µM (inactive) in the assay with Malme-3M; 56.8 µM (inactive) in the assay with CAKI-1; 67.3 µM (inactive) with ACHN; 41.9 µM (inactive) in the assay on TK-10; 25.5 µM (inactive) with K562; 44.1 µM (inactive) in the assay on PC-3. Moreover, the GI50 was 21.7 µM (inactive) in the assay on MOLT-4; 83.6 µM (inactive) in the assay on HOP-62; > 100 µM (inactive) in the assay with SK-OV-3; 27.2 µM (inactive) in the assay on RXF 393; 40.3 µM (inactive) in the assay on LOX IMVI; 54.8 µM (inactive) in the assay on UACC-257. The GI50 in the assay with T47D is 36.2 µM (inactive); in the assay on KM12 it was 22.3 µM (inactive); with UO-31 it was 58.2 µM (inactive); with OVCAR-5, > 100 µM (inactive); with NCI-H522 it was 21 µM (inactive); in the assay with OVCAR-8 it was 67 µM (inactive). Further, the GI50 is 40.4 µM (inactive) in the assay with HCT-116 and 24.5 µM (inactive) with HOP-92.
Consider `C=C1C(=O)O[C@@H]2C[C@@H](C)[C@@H]3C=CC(=O)[C@@]3(C)[C@@H](OC(=O)CC(=O)O[C@H]3[C@@H]4C(=C)C(=O)O[C@@H]4C[C@@H](C)[C@@H]4C=CC(=O)[C@]43C)[C@H]12`, for which the GI50 in the assay with Malme-3M was 0.0174 µM (active); in the assay with CAKI-1 it was 0.0238 µM (active); with ACHN, 0.03 µM (active); in the assay on TK-10, 0.117 µM (active); in the assay with K562, 0.0154 µM (active); in the assay with PC-3 it was 0.146 µM (active). Besides, the GI50 is 0.0153 µM (active) in the assay on MOLT-4; 0.44 µM (active) in the assay with HOP-62; 0.256 µM (active) with SK-OV-3; < 0.0112 µM (active) with RXF 393; < 0.0335 µM (active) in the assay with LOX IMVI; 0.0252 µM (active) in the assay on UACC-257. For the same compound, the GI50 in the assay on T47D is 0.179 µM (active); in the assay with KM12, 0.0478 µM (active); in the assay on UO-31, 0.137 µM (active); in the assay on OVCAR-5 it was 0.178 µM (active); in the assay on NCI-H522, < 0.01 µM (active); in the assay on OVCAR-8 it was 0.0299 µM (active). Besides, the GI50 is 0.0143 µM (active) in the assay on HCT-116 and 0.0296 µM (active) with HOP-92.

The values are drawn from ChEMBL document CHEMBL1201862, “PubChem BioAssay data set” (2004).
